Data as given in US20130172271A1, “Pharmaceutical Spray Drying” (priority 2012, published 2013).
Structures can show the parent of a compound that is named as a salt.

Legend:
[1] = Stability testing of spray dried vancomycin batch stored at 25° C./60% RH, 30° C./60% RH and 40° C./75% RH; format: physicochemical; details: Initial
Protocol: (§1) Batches for stability testing were made using the spray dried formulation vancomycin HCl (15% by weight), PEG-400 (3% by weight), mannitol (3% by weight) in WFI, with the API sourced from Abbott Laboratories (North Chicago, Ill.). Spray dried batches were stored at 25° C./60% Relative Humidity (RH), 30° C./60% RH, and 40° C./75% RH for three months. The stability data on moisture by Karl Fischer, pH (of the reconstituted solution), reconstitution time and chromatographic purity are presented in Table 7. The chromatographic purity was examined using the analytical HPLC method described in the current USP (United States Pharmacopeia) monograph for vancomycin. The test results for the API lot used to make the spray dried product were also listed for comparison.
The chromatographic purity of vancomycin B for all samples tested in this study were within USP specifications. All samples were stored at the accelerated conditions of 40° C./75% RH for 3 months and met USP criterion for vancomycin B by chromatographic purity (NLT 80% vancomycin B).

[2] = Chromatographic purity / impurities of spray dried vancomycin powders (Vancomycin B); format: physicochemical
Protocol: as §1
Three vancomycin formulations were prepared in WFI or citrate buffer. The solutions were spray dried as described above. Resultant powders were tested along with the vancomycin HCl API for impurities, reconstitution time and moisture as shown in Table 8.

Compound	Vancomycin B [1] [%]	N-Demethylvancomycin ([2]; Table 8) [%]	Vancomycin B ([2]; Table 8) [%]	Other ([2]; Table 8, other impurities) [%]
CN[C@H](CC(C)C)C(=O)N[C@H]1C(=O)N[C@@H](CC(N)=O)C(=O)N[C@H]2C(=O)N[C@H]3C(=O)N[C@H](C(=O)N[C@H](C(=O)O)c4cc(O)cc(O)c4-c4cc3ccc4O)[C@H](O)c3ccc(c(Cl)c3)Oc3cc2cc(c3O[C@@H]2O[C@H](CO)[C@@H](O)[C@H](O)[C@H]2O[C@H]2C[C@](C)(N)[C@H](O)[C@H](C)O2)Oc2ccc(cc2Cl)[C@H]1O [API Lot 09097619, vancomycin HCl]	91.9	–	–	–
CN[C@H](CC(C)C)C(=O)N[C@H]1C(=O)N[C@@H](CC(N)=O)C(=O)N[C@H]2C(=O)N[C@H]3C(=O)N[C@H](C(=O)N[C@H](C(=O)O)c4cc(O)cc(O)c4-c4cc3ccc4O)[C@H](O)c3ccc(c(Cl)c3)Oc3cc2cc(c3O[C@@H]2O[C@H](CO)[C@@H](O)[C@H](O)[C@H]2O[C@H]2C[C@](C)(N)[C@H](O)[C@H](C)O2)Oc2ccc(cc2Cl)[C@H]1O [API, vancomycin HCl]	–	0.6	94.9	4.5
